In publication PMC7156458, “Synthetic biology based construction of biological activity-related library of fungal decalin-containing diterpenoid pyrones” (Nature Communications, 2020):
Where two headings read alike, the source gives them in different places.

Tests used:
MCF-7 cells = assay: cell cytotoxic effects against MCF-7 cells (72 h), A490; type: cell-based, human; conditions: for viability at 0.1 µM / viability at 1 µM / viability at 10 µM: Homo sapiens, MCF7, 72 h, read-out: A490 (control =1) ave
Experimental: !" ' ' '! !" ' ' '! !" ' ' '!!" ' ' '!!" ' ' '!!" ' ' '!!" ' ' '!!" ' ' '! !" ' ' '! !" ' ' '! !" ' ' '! !"#$
( % ) * '! '' '# '+ '$ '( '%
! " # $ %& %% %' %( %) %! %"
!" ' ' '! !" ' ' '!!" ' ' '!!" ' ' '!!" ' ' '!!" ' ' '!!" ' ' '! !" ' ' '! !" ' ' '! !" ' ' '! !" ' ' '! […]
Supplementary Fig. 46. a, Cell cytotoxic effects of DDPs against MCF-7 cells (72 h).
dose dependent cytotoxic effects against MCF-7 cells were tested their inhibitory activity against mammosphere
formation. Compound in blue (16) was also performed mammosphere assay as negative control. Data represent
mean±s.d. from three independent replicate experiments. […]
Source data underlying Supplementary Figure 46a are provided in a Source Data file. […]

[1] = tested on: hepatitis B virus (HBV), measles virus (MV), Epstein-Barr virus (EBV), herpes simplex virus (HSV); assay: preliminary anti-viral screening (other viruses); type: cell-based
Excerpt: We examined the inhibitory activities of DDPs against various species of bacteria (both gram-negative and gram-positive bacteria), fungi and viruses. […] In contrast, preliminary screening of the DDPs for anti-viral agents with hepatitis B virus (HBV), measles virus (MV), Epstein-Barr virus (EBV), herpes simplex virus (HSV) and human immunodeficiency virus-1 (HIV-1) indicated their selective inhibition of HIV.

[2] = MCF-7, 72 h, 0.1 µM (DMSO 0.002%)
[3] = MCF-7, 72 h, 0.1 µM (DMSO 0.002%), control 1.064
[4] = MCF-7, 72 h, 1 µM (DMSO 0.02%), control 1.104
[5] = MCF-7, 72 h, 10 µM (DMSO 0.2%), control 1.049

Row | SMILES | viability at 0.1 µM (MCF-7 cells; [2]) [%] | viability at 1 µM (MCF-7 cells; MCF-7, 72 h, 1 µM (DMSO 0.02%)) [%] | viability at 10 µM (MCF-7 cells; MCF-7, 72 h, 10 µM (DMSO 0.2%)) [%] | A490 ave (MCF-7 cells; [3]) | A490 ave (MCF-7 cells; [4]) | A490 ave (MCF-7 cells; [5]) | effect on other viruses [1] | viability at 0.1 µM (MCF-7 cells) [%] | viability at 1 µM (MCF-7 cells) [%] | viability at 10 µM (MCF-7 cells) [%]
1 | C=C1CC[C@H]2[C@]3(C)C[C@H](C=C(C)C)O[C@H]3CC[C@]2(C)[C@@H]1Cc1c(O)c(C)c(C)oc1=O [Compound 6, subglutinol B] | 55.9 | 109 | 22.4 | 0.595 | 1.207 | 0.235 |  |  |  | 
2 | C=C1CCC2C(C)(CCC=C(C)C)C(O)CCC2(C)C1Cc1c(O)c(C)c(C)oc1=O (centres unmarked) [Compound 9, higginsianin B] | 53.1 | 95.5 | 27.3 | 0.565 | 1.055 | 0.286 |  |  |  | 
3 | C=C1CC[C@@H]2[C@](C)(CC[C@H]3O[C@H](C=C(C)C)C[C@@]23C)[C@@H]1Cc1c(O)c(C)c(C)oc1=O [Compound 10, higginsianin A] | 62.9 | 94.3 | 17.9 | 0.669 | 1.042 | 0.188 | without affecting other viruses |  |  | 
4 | C=C1CCC2C(C)(CCC=C(C)C)C(O)CCC2(C)C1Cc1c(OC)oc(C)c(C)c1=O (centres unmarked) [Compound 15, viridoxin A hydrolysate] |  |  |  | 0.873 | 1.333 | 0.649 |  | 82 | 121 | 61.8
5 | C=C1CC[C@H]2[C@]3(C)C[C@H](C=C(C)C)O[C@H]3CC[C@]2(C)[C@@H]1Cc1c(OC)oc(C)c(C)c1=O [Compound 24] | 64 | 76.3 | 12.6 | 0.680 | 0.843 | 0.132 | without affecting other viruses |  |  | 
6 | C=C1CCC2C(C)(CC(=O)C=C(C)C)C(O)CCC2(C)C1Cc1c(OC)oc(C)c(C)c1=O (centres unmarked) [Compound 25] | 78.9 | 103 | 112 | 0.839 | 1.141 | 1.171 |  |  |  | 
